biological target: T1, BACE-1 enzyme (Homo sapiens, UniProt P56817); assay: BACE Fluorescence Resonance Energy Transfer (FRET) Assay; format: biochemical; conditions: pH 4-4.5, 30 min pre-incubation, about 1.5 hours reaction
T1 construct: purchased R & D Systems 931AS
Summary of the method: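 Fluorescence (ex 540, em 585 nm) after ~1.5 h room-temperature cleavage of a quenched rhodamine peptide tracks BACE-1 activity. Enzyme and compound first sit 30 min in pH 4-4.5 acetate buffer with CHAPS, Triton X-100, EDTA, 7.5% DMSO. Values given as IC50 or % inhibition.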

T1 sequence (P56817 46-457 limits assumed): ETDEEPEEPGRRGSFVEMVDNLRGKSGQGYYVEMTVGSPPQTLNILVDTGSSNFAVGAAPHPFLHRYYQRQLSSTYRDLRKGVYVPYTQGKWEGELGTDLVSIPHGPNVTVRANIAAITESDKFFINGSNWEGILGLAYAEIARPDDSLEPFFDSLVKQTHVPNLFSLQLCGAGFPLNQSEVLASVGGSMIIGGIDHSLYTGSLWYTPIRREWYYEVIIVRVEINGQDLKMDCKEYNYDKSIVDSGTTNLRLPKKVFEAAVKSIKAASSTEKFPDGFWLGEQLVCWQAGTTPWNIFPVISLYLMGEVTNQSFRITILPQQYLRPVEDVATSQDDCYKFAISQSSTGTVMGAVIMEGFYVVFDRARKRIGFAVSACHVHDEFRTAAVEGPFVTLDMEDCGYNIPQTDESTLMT

Row | Structure (SMILES) | IC50
1 | O=C(Nc1nc2cc(-c3cc(F)cc(Cl)c3)ccc2[nH]1)c1cn2cc(F)cc(N3CC[C@H](O)C3)c2n1 [Example 152, 6-Fluoro-8-((S)-3-hydroxy-pyrrolidin-1-yl)-imidazo[1,2-a]pyridine-2-carboxylic acid [5-(3-chloro-5-fluoro-phenyl)-1H-benzoimidazol-2-yl]-amide] | 1.53 µM
2 | O=C(Nc1nc2cc(-c3cc(F)cc(Cl)c3)ccc2[nH]1)c1cn2cc(F)cc(N3CC[C@@H](O)C3)c2n1 [Example 153, 6-Fluoro-8-((R)-3-hydroxy-pyrrolidin-1-yl)-imidazo[1,2-a]pyridine-2-carboxylic acid [5-(3-chloro-5-fluoro-phenyl)-1H-benzoimidazol-2-yl]-amide] | 1.83 µM
3 | O=C(Nc1nc2cc(-c3cc(F)cc(Cl)c3)ccc2[nH]1)c1cn2c(N3CC[C@H](O)C3)cccc2n1 [Example 155, 5-((S)-3-Hydroxy-pyrrolidin-1-yl)-imidazo[1,2-a]pyridine-2-carboxylic acid [5-(3-chloro-5-fluoro-phenyl)-1H-benzoimidazol-2-yl]-amide] | 0.25 µM
4 | CO[C@@H]1CCN(c2cccc3nc(C(=O)Nc4nc5cc(-c6cc(F)cc(Cl)c6)ccc5[nH]4)cn23)C1 [Example 156, 5-((R)-3-Methoxy-pyrrolidin-1-yl)-imidazo[1,2-a]pyridine-2-carboxylic acid [5-(3-chloro-5-fluoro-phenyl)-1H-benzoimidazol-2-yl]-amide] | 0.29 µM
5 | CCN(CC)Cc1cccc2nc(C(=O)Nc3nc4cc(-c5cccc(C(F)(F)F)c5)ccc4[nH]3)cn12 [Example 168, 5-Diethylaminomethyl-imidazo[1,2-a]pyridine-2-carboxylic acid [5-(3-trifluoromethyl-phenyl)-1H-benzoimidazol-2-yl]-amide] | 0.65 µM
6 | O=C(Nc1nc2cc(-c3cccc(C(F)(F)F)c3)ccc2[nH]1)c1cn2c(CNCc3ccccc3)cccc2n1 [Example 173, 5-(Benzylamino-methyl)-imidazo[1,2-a]pyridine-2-carboxylic acid [5-(3-trifluoromethyl-phenyl)-1H-benzoimidazol-2-yl]-amide] | 0.57 µM
7 | O=C(Nc1nc2cc(-c3cccc(C(F)(F)F)c3)ccc2[nH]1)c1cn2c(CN3CCCC3)cccc2n1 [Example 175, 5-Pyrrolidin-1-ylmethyl-imidazo[1,2-a]pyridine-2-carboxylic acid [5-(3-trifluoromethyl-phenyl)-1H-benzoimidazol-2-yl]-amide] | 0.49 µM
8 | CN(C)Cc1ccc2nc(C(=O)Nc3nc4cc(-c5cccc(C(F)(F)F)c5)ccc4[nH]3)cn2c1 [Example 181, 6-Dimethylaminomethyl-imidazo[1,2-a]pyridine-2-carboxylic acid [5-(3-trifluoromethyl-phenyl)-1H-benzoimidazol-2-yl]-amide] | 0.8 µM
9 | O=C(Nc1nc2cc(-c3cccc(C(F)(F)F)c3)ccc2[nH]1)c1cn2cc(CNCc3ccccc3)ccc2n1 [Example 186, 6-(Benzylamino-methyl)-imidazo[1,2-a]pyridine-2-carboxylic acid [5-(3-trifluoromethyl-phenyl)-1H-benzoimidazol-2-yl]-amide] | 0.43 µM
10 | CCNCc1ccc2nc(C(=O)Nc3nc4cc(-c5cccc(C(F)(F)F)c5)ccc4[nH]3)cn2c1 [Example 187, 6-Ethylaminomethyl-imidazo[1,2-a]pyridine-2-carboxylic acid [5-(3-trifluoromethyl-phenyl)-1H-benzoimidazol-2-yl]-amide] | 0.51 µM
11 | CCN(C)Cc1cccc2nc(C(=O)Nc3nc4cc(-c5cccc(C(F)(F)F)c5)ccc4[nH]3)cn12 [Example 189, 5-[(Ethyl-methyl-amino)-methyl]-imidazo[1,2-a]pyridine-2-carboxylic acid [5-(3-trifluoromethyl-phenyl)-1H-benzoimidazol-2-yl]-amide] | 0.95 µM
12 | CC(C)CN(C)Cc1cccc2nc(C(=O)Nc3nc4cc(-c5cccc(C(F)(F)F)c5)ccc4[nH]3)cn12 [Example 191, 5-[(Isobutyl-methyl-amino)-methyl]-imidazo[1,2-a]pyridine-2-carboxylic acid [5-(3-trifluoromethyl-phenyl)-1H-benzoimidazol-2-yl]-amide] | 1.53 µM
13 | O=C(Nc1nc2cc(-c3cccc(C(F)(F)F)c3)ccc2[nH]1)c1cn2cccc(CN3CCOCC3)c2n1 [Example 198, 8-Morpholin-4-ylmethyl-imidazo[1,2-a]pyridine-2-carboxylic acid [5-(3-trifluoromethyl-phenyl)-1H-benzoimidazol-2-yl]-amide] | 1.14 µM
14 | O=C(Nc1nc2cc(-c3cccc(C(F)(F)F)c3)ccc2[nH]1)c1cn2ccc(CO)cc2n1 [Example 200, 7-Hydroxymethyl-imidazo[1,2-a]pyridine-2-carboxylic acid [5-(3-trifluoromethyl-phenyl)-1H-benzoimidazol-2-yl]-amide] | 0.46 µM

Further compounds by falling IC50, results first:

Row | IC50 | Structure (SMILES)
15 | 1.65 µM | CC(C)(C)NCc1cccn2cc(C(=O)Nc3nc4cc(-c5cccc(C(F)(F)F)c5)ccc4[nH]3)nc12 [Example 193, 8-(tert-Butylamino-methyl)-imidazo[1,2-a]pyridine-2-carboxylic acid [5-(3-trifluoromethyl-phenyl)-1H-benzoimidazol-2-yl]-amide]
16 | 1.33 µM | O=C(Nc1nc2cc(-c3cc(F)cc(Cl)c3)ccc2[nH]1)c1cn2cc(F)cc(N3CCC(O)CC3)c2n1 [Example 154, 6-Fluoro-8-(4-hydroxy-piperidin-1-yl)-imidazo[1,2-a]pyridine-2-carboxylic acid [5-(3-chloro-5-fluoro-phenyl)-1H-benzoimidazol-2-yl]-amide]
17 | 1.28 µM | CN(Cc1ccccc1)Cc1cccc2nc(C(=O)Nc3nc4cc(-c5cccc(C(F)(F)F)c5)ccc4[nH]3)cn12 [Example 190, 5-[(Benzyl-methyl-amino)-methyl]-imidazo[1,2-a]pyridine-2-carboxylic acid [5-(3-trifluoromethyl-phenyl)-1H-benzoimidazol-2-yl]-amide]
18 | 1.08 µM | CCN(C)Cc1cccn2cc(C(=O)Nc3nc4cc(-c5cccc(C(F)(F)F)c5)ccc4[nH]3)nc12 [Example 195, 8-[(Ethyl-methyl-amino)-methyl]-imidazo[1,2-a]pyridine-2-carboxylic acid [5-(3-trifluoromethyl-phenyl)-1H-benzoimidazol-2-yl]-amide]
19 | 0.79 µM | O=C(Nc1nc2cc(-c3cccc(C(F)(F)F)c3)ccc2[nH]1)c1cn2c(CN3CCCCC3)cccc2n1 [Example 166, 5-Piperidin-1-ylmethyl-imidazo[1,2-a]pyridine-2-carboxylic acid [5-(3-trifluoromethyl-phenyl)-1H-benzoimidazol-2-yl]-amide]
20 | 0.75 µM | CO[C@@H]1CCN(c2cc(F)cn3cc(C(=O)Nc4nc5cc(-c6cc(F)cc(Cl)c6)ccc5[nH]4)nc23)C1 [Example 160, 6-Fluoro-8-((R)-3-methoxy-pyrrolidin-1-yl)-imidazo[1,2-a]pyridine-2-carboxylic acid [5-(3-chloro-5-fluoro-phenyl)-1H-benzoimidazol-2-yl]-amide]
21 | 0.56 µM | CN1CCN(Cc2ccc3nc(C(=O)Nc4nc5cc(-c6cccc(C(F)(F)F)c6)ccc5[nH]4)cn3c2)CC1 [Example 183, 6-(4-Methyl-piperazin-1-ylmethyl)-imidazo[1,2-a]pyridine-2-carboxylic acid [5-(3-trifluoromethyl-phenyl)-1H-benzoimidazol-2-yl]-amide]
22 | 0.51 µM | O=C(Nc1nc2cc(-c3cccc(C(F)(F)F)c3)ccc2[nH]1)c1cn2cc(CNC3CCCC3)ccc2n1 [Example 180, 6-Cyclopentylaminomethyl-imidazo[1,2-a]pyridine-2-carboxylic acid [5-(3-trifluoromethyl-phenyl)-1H-benzoimidazol-2-yl]-amide]
23 | 0.46 µM | Cc1cc(OCCN2CCN(C)CC2)c2nc(C(=O)Nc3nc4cc(-c5cc(F)cc(Cl)c5)ccc4[nH]3)cn2c1 [Example 150, 6-Methyl-8-[2-(4-methyl-piperazin-1-yl)-ethoxy]-imidazo[1,2-a]pyridine-2-carboxylic acid [5-(3-chloro-5-fluoro-phenyl)-1H-benzoimidazol-2-yl]-amide]
24 | 0.43 µM | CC(C)(C)NCc1ccc2nc(C(=O)Nc3nc4cc(-c5cccc(C(F)(F)F)c5)ccc4[nH]3)cn2c1 [Example 178, 6-(Tert-Butylamino-methyl)-imidazo[1,2-a]pyridine-2-carboxylic acid [5-(3-trifluoromethyl-phenyl)-1H-benzoimidazol-2-yl]-amide]
25 | 0.34 µM | CO[C@H]1CCN(c2cc(F)cn3cc(C(=O)Nc4nc5cc(-c6cc(F)cc(Cl)c6)ccc5[nH]4)nc23)C1 [Example 159, 6-Fluoro-8-((S)-3-methoxy-pyrrolidin-1-yl)-imidazo[1,2-a]pyridine-2-carboxylic acid [5-(3-chloro-5-fluoro-phenyl)-1H-benzoimidazol-2-yl]-amide]
26 | 0.32 µM | CO[C@H]1CCN(c2cccc3nc(C(=O)Nc4nc5cc(-c6cc(F)cc(Cl)c6)ccc5[nH]4)cn23)C1 [Example 157, 5-((S)-3-Methoxy-pyrrolidin-1-yl)-imidazo[1,2-a]pyridine-2-carboxylic acid [5-(3-chloro-5-fluoro-phenyl)-1H-benzoimidazol-2-yl]-amide]
27 | 0.31 µM | COc1cccn2cc(C(=O)Nc3nc4cc(-c5cc(F)cc(Cl)c5)ccc4[nH]3)nc12 [Example 151, 8-Methoxy-imidazo[1,2-a]pyridine-2-carboxylic acid [5-(3-chloro-5-fluoro-phenyl)-1H-benzoimidazol-2-yl]-amide]
28 | 0.3 µM | CC(C)CNCc1cccc2nc(C(=O)Nc3nc4cc(-c5cccc(C(F)(F)F)c5)ccc4[nH]3)cn12 [Example 164, 5-(Isobutylamino-methyl)-imidazo[1,2-a]pyridine-2-carboxylic acid [5-(3-trifluoromethyl-phenyl)-1H-benzoimidazol-2-yl]-amide]
29 | 0.1 µM | O=C(Nc1nc2cc(-c3cc(F)cc(Cl)c3)ccc2[nH]1)c1cn2c(N3CCC(O)CC3)cccc2n1 [Example 158, 5-(4-Hydroxy-piperidin-1-yl)-imidazo[1,2-a]pyridine-2-carboxylic acid [5-(3-chloro-5-fluoro-phenyl)-1H-benzoimidazol-2-yl]-amide]
